Several values for one entry are separate records, joined by “and”; a condition that tells them apart may be missing. Equal entries are not always repeated.
Experiments:
poly(dG-dC)2 = test: Ethidium bromide assay, DNA-binding effects on poly; conditions: EtBr-DNA complex, compound 10 μM, 25 °C 30 min
calf thymus DNA = test: Ethidium bromide assay, DNA-binding effects on calf thymus DNA; conditions: EtBr-DNA complex, compound 10 μM, 25 °C 30 min
plasmid pBR322 = conditions: NT under the same conditions; cited from earlier work
T4 coliphage DNA = test: Ethidium bromide assay, DNA-binding effects on T4 coliphage DNA; conditions: EtBr-DNA complex, compound 10 μM, 25 °C 30 min
poly(dA-dT)2 = test: Ethidium bromide assay, DNA-binding effects on poly; conditions: EtBr-DNA complex, compound 10 μM, 25 °C 30 min

Cn1cc(NC(=O)c2cc(NC(=O)CN=C(N)N)cn2C)cc1C(=O)NCCC(=N)N [NT, netropsin, reference compound]
Decrease in fluorescence (%) Poly (dG-dC)2 (poly(dG-dC)2): 85% and 85.13%
Decrease in fluorescence (%) Calf Thymus DNA (calf thymus DNA): 90.24%
Decrease in fluorescence (%) pBr322 (degree of EtBr displacement) (plasmid pBR322): 74%
Decrease in fluorescence (%) T4 DNA (T4 coliphage DNA): 70.06%
Decrease in fluorescence (%) Poly (dA-dT)2 (poly(dA-dT)2): 62.02%
